Reference: patent publication US12065468B2, “Heme-binding small peptide” (priority 2021, dated 2024)

Columns and labels:
[1] = literature; read-out: KD for heme; cited from earlier work
[2] = Biolayer interferometry of heme binding; settings: compared with NCR247 (L-enantiomer)
Text: Biotinylation of heme: Hemin was biotinylated using the method exactly as described previouslyl^16. Biotin hydrazide, DCC was purchased from Sigma. COSMOSIL™ 5C18-AR-II Packed Column, 4.6 mm I.D.×150 mm from Nacalai USA (San Diego, CA) was used to separate the products. LC-MS was used to verify the correct molecular weight (969.4 Da) of biotinylated heme (in which only one of the two propionate groups of protoheme was conjugated with biotin hydrazide) as described above.
Biolayer interferometry: Biolayer interferometry was carried out using a ForteBio Octet RED96™ biolayer interferometer, following the manufacturer's instructions for a standard kinetic assay. Streptavidin-coated biosensor tips were incubated in 200 μl assay buffer (Water [pH 7.4]), each for 60s. Then biotinylated heme (or NCR247 in the case of Fe(III) PPIX dimethyl ester chloride) was loaded onto each biosensor tip at the defined concentration until the binding signal reached a value of >1.4. Biosensor tip loading was followed by incubation in assay buffer for 60s. Association between the ligand-heme and the analyte-various variants of NCR247 (Increasing concentrations in assay buffer) was observed over a time frame of ˜116 s, in assay buffer. To stop binding kinetics for dissociation, the biosensor tips were placed back into assay buffer not containing any analyte, for 120 s. Curves were fit with Global fit analysis and Data analysis and KD calculation was performed using Fortebio™ data analyses 8.2 software as described previously^89.

[3] = UV-Vis spectroscopy / colour change on heme addition; assay type: binding; settings: heme added to peptide, ferric heme
Description: Heme preparation: Hemin solutions were always prepared in 0.1 M NaOH and used within 30 min of preparation. 1:1000 and 1:500 dilution of the stock solution was made and stock concentration was measured by pyridine hemochrome assay as described previously^85 by measuring the absorption at 557 nm using the extinction coefficient of pyridine hemochromogen (34.7 mM^−1 cm^−1).
UV-VIS spectroscopy: All absorption spectra were collected in a Tecan Spark™ 10 M microplate reader using black polystyrene 96-well plates. Absorbance from 300 nm to 700 nm was recorded with a 5 nm interval after an initial shaking at 100 rpm for 15 secs. Heme binding to synthesized peptide: Water (pH 7.4) was used in all reactions and was first added to the wells. Peptides solubilized in water were added and then heme solubilized in 0.1 M NaOH was added, mixed thoroughly and measurements were taken immediately. Peptide and heme volume were kept to a maximum of 5 ul in volume. For all the absorption curves (except Extended FIG. 3a) […] was used. The same was also repeated with 0.1 M Tris buffer (pH 7.4) as a base buffer instead of water.

Sinorhizobium meliloti [4] = assay: S. meliloti growth curve; assay type: cell-based; settings: increasing amounts of peptide; minimal medium
Description: Growth curve: All growth curve experiments were performed in a Tecan SPARK 10M microplate reader using polystyrene flat bottomed, non-treated, sterile 96 well plates. Overnight cultures grown in LBMC were washed and were subcultured (1:100 dilution) in minimal medium supplemented with respective iron concentrations. The plates were programed to continuously shake at 150 rpm and temperature maintained at 30° C. Optical density was measured at 600 nm every 60 minutes.

Sinorhizobium meliloti [5] = assay: S. meliloti cell death in 24 hours (plating); assay type: cell-based

Q: With “Aβ (1-42) peptide: human Aβ amyloid peptide derived from cleavage of the amyloid precursor protein” as the substance, how does the Kd [1] read?
A: 140 nM

Q: Which “heme binding affinity, in words” value [2] does the source give for “RNGCIVDARCPYQKCSYPLYCRRR [M. sativa (alfalfa) NCR247 ortholog, NCR247 ortholog of M. sativa with a 4-amino acid change]” here?
A: binds heme with the same affinity

Q: Which results are given for “RNGCIVDPRCPYQQCRRPLYCAAA [NCR247 (RRR to AAA mutant)]”?
A: heme binding (absorption peaks 366 nm, ~450 nm; colour change) [3]: binds heme; inhibition of growth of S. meliloti (bacteriostatic effect) (Sinorhizobium meliloti [4]): does not inhibit the growth of Sinorhizobium meliloti; Cell death in 24 hours (Sinorhizobium meliloti [5]; 6 uM peptide): No cell death observed; reduction in number of S. meliloti cells (bactericidal effect) (Sinorhizobium meliloti [5]; incubated 24 hours, plated in non-selective medium): causes no reduction in number of S. meliloti cells

Q: With haempexin: heme scavenger as the substance, how does the Kd [1] read?
A: < 1000 nM

Q: For hemoglobin, which Kd [1] is on record?
A: 10 nM
